From ChEMBL document CHEMBL4476883, “Hydroxy formamide derivatives and their use” (2017)

Columns and labels:
[1] = target: T1, Bone morphogenetic protein 1 (Homo sapiens, UniProt P13497); experiment: Inhibition of C-terminal FLAG-6x-His epitope tagged and N-terminal human RAGE signal sequence tagged human BMP1 (23 to 721 amino acids) expressed in CHO-E1A cells pre-incubated for 10 mins before promyostatin peptide substrate addition and measured after 60 mins using 0.5 nM BMP1 by FRET based assay; type: cell-based
T1 sequence (P13497 whole entry): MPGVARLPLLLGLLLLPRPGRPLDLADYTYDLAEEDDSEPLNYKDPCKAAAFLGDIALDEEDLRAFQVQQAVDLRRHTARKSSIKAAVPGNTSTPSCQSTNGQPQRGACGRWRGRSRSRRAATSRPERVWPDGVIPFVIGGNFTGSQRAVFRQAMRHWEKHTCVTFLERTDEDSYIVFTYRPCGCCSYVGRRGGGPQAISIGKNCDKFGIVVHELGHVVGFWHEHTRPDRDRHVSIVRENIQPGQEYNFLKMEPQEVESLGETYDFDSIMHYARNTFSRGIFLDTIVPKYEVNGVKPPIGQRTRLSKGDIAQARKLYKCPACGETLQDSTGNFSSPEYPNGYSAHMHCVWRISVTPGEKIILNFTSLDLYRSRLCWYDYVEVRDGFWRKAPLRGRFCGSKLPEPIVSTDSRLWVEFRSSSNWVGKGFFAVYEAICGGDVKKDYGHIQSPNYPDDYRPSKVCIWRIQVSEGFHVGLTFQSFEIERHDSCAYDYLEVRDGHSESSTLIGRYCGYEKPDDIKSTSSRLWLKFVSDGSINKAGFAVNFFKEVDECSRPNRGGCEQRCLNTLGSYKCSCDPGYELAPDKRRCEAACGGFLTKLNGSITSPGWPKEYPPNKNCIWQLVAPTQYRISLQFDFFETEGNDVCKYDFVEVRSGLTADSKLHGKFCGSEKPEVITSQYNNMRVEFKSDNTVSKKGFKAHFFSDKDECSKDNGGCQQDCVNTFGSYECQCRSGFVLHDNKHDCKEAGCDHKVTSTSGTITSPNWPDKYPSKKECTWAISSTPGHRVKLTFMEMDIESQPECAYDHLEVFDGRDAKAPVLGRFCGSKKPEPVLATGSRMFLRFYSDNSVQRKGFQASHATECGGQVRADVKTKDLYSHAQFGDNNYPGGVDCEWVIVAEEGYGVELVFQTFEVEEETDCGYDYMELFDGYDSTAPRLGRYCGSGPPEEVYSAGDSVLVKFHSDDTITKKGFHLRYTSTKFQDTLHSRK

[2] = target: T1, Bone morphogenetic protein 1; experiment: Inhibition of C-terminal FLAG-6x-His epitope tagged and N-terminal human RAGE signal sequence tagged human BMP1 (23 to 721 amino acids) expressed in CHO-E1A cells pre-incubated for 10 mins before promyostatin peptide substrate addition and measured after 30 mins using 50 nM BMP1 by FRET based assay; type: cell-based
Tolloid-like protein 2 = target: T2, Tolloid-like protein 2 (Homo sapiens, UniProt Q9Y6L7); experiment: Inhibition of C-terminal Avi-6x-His epitope tagged and N-terminal human RAGE signal sequence tagged recombinant human TLL2 (26 to 1015 amino acids) expressed in CHOE1A cells incubated for 60 mins with promyostatin peptide substrate by FRET based assay; type: cell-based
T2 sequence (Q9Y6L7 whole entry): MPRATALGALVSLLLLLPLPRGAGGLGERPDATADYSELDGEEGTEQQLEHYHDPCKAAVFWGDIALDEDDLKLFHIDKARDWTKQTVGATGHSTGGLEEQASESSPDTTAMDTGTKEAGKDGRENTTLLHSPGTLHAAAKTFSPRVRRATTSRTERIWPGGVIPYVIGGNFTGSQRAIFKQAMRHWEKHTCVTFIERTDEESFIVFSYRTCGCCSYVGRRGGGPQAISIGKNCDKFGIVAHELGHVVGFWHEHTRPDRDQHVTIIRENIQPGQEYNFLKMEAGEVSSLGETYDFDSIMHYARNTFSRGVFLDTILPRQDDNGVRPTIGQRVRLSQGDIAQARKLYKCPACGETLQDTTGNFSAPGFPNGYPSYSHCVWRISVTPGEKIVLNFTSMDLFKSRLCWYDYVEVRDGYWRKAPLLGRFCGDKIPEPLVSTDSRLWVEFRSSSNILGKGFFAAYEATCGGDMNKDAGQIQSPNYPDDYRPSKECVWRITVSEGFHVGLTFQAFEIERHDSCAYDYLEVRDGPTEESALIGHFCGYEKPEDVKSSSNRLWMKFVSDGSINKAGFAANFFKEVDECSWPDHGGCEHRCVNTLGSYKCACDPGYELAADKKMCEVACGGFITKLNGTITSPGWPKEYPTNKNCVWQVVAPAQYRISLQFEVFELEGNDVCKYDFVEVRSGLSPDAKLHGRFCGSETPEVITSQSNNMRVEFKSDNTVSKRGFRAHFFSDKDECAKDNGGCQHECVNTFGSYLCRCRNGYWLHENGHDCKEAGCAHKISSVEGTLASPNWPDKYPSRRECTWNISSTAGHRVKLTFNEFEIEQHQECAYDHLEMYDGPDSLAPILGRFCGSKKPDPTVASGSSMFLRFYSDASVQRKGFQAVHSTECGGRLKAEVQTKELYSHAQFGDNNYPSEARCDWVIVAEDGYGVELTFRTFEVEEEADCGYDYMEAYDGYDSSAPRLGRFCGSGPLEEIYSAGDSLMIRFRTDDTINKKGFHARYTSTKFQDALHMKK

[3] = Reduction in PICP levels in human cardiac fibroblasts incubated for 24 to 48 hrs by ELISA; type: functional
Tolloid-like protein 1 = Tolloid-like protein 1 (Homo sapiens, UniProt O43897, I156V/N221S/V284A); experiment: Inhibition of recombinant human TLL1 I156V/N221S/V284A mutant expressed in CHOE1A cells pre-incubated for 10 mins before promyostatin peptide substrate addition and measured after 60 mins by FRET based assay; type: cell-based
Tolloid-like protein 1, sequence (O43897 148-1013 I156V/N221S/V284A limits assumed): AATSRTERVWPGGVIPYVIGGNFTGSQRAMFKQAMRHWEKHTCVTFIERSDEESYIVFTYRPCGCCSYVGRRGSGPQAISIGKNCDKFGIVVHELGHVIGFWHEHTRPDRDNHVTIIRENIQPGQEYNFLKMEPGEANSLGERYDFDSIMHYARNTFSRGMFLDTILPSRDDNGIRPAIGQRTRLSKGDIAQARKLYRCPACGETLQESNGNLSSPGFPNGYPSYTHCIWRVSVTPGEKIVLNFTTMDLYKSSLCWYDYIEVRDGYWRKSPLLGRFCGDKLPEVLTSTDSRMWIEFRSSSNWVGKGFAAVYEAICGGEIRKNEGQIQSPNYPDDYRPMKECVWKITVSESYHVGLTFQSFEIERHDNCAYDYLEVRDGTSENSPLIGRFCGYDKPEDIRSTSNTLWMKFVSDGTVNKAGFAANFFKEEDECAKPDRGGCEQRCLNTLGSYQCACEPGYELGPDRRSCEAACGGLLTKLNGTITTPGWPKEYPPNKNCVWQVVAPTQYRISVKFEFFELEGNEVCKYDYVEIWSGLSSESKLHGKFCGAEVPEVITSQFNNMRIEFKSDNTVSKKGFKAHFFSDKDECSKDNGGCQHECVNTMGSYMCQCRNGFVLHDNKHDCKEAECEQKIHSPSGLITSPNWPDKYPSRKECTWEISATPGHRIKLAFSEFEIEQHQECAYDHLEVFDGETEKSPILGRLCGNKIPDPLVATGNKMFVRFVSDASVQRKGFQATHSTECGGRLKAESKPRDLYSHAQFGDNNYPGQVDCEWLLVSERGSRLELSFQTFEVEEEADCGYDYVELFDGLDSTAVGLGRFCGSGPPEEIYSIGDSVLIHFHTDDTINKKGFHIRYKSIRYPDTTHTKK

Row | IC50 [1] [nM] | IC50 [2] [nM] | IC50 (Tolloid-like protein 2) [nM] | IC50 (Tolloid-like protein 1) [nM] | Compound | IC50 [3] [nM]
1 | < 126 | < 251 | < 631 | < 398 | CCCCC[C@@H](C(=O)NCNC(=O)c1cccc(-c2ccc(CC(=O)O)c(OCC)c2)n1)[C@@H](CC)N(O)C=O | < 20000
2 | < 126 | < 251 | < 631 | < 398 | CCCCC[C@@H](C(=O)NCNC(=O)c1cccc(-c2ccc(C(=O)O)c(OCC)c2)n1)[C@@H](CC)N(O)C=O | < 20000
3 | < 126 | < 251 | < 631 | < 398 | CCCCC[C@H](CN(O)C=O)C(=O)NCNC(=O)c1cccc(-c2ccc(F)c(OC)c2)n1 | < 20000
4 | < 126 | < 251 | < 631 | < 398 | O=CN(O)C[C@@H](CCc1ccccc1)C(=O)NCNC(=O)c1cccc(-c2ccccc2)n1 | < 20000
5 | < 126 | < 251 | < 631 | < 398 | CCCCC[C@@H](C(=O)NCNC(=O)c1cccc(-c2cc(OCC)cc(C(=O)O)c2O)n1)[C@@H](CC)N(O)C=O | < 20000
6 | < 126 | < 251 | < 631 | < 398 | CCCCC[C@@H](C(=O)NCNC(=O)c1cncc(-c2ccc(C(=O)O)c(OCC)c2)n1)[C@@H](CC)N(O)C=O | < 20000
7 | < 126 | < 251 | < 631 | < 398 | CCCCC[C@@H](C(=O)NCNC(=O)c1cccc(-c2ccc(C(=O)O)c(O)c2)c1)[C@@H](CC)N(O)C=O | < 20000
8 | < 126 | < 251 | < 631 | < 398 | CCCCC[C@H](CN(O)C=O)C(=O)NCNC(=O)c1cc(C(F)(F)F)cc(-c2ccccc2)n1 | < 20000
9 | < 126 | < 251 | < 631 | < 398 | CCCCC[C@H](CN(O)C=O)C(=O)NCNC(=O)c1cccc(-c2cccnc2)n1 | < 20000
10 | < 126 | < 251 | < 631 | < 398 | CCCCC[C@@H](C(=O)NCNC(=O)c1cccc(-c2ccc(C(=O)N[C@@H](CC(=O)O)C(=O)O)c(OCC(=O)O)c2)n1)[C@@H](CC)N(O)C=O | < 20000
11 | < 126 | < 251 | < 631 | < 398 | CCCCC[C@H](CN(O)C=O)C(=O)NCNC(=O)c1cccc(-c2ccccc2)n1 | < 20000
12 | < 126 | < 251 | < 631 | < 398 | CCCCC[C@H](CN(O)C=O)C(=O)NCNC(=O)c1cccc(-c2cccc(OC)n2)n1 | < 20000
13 | < 126 | < 251 | < 631 | < 398 | CCCCC[C@@H](C(=O)NCNC(=O)c1cccc(-c2cc(OCC)cc(C(=O)N[C@@H](CC(=O)O)C(=O)O)c2)n1)[C@@H](CC)N(O)C=O | < 20000
14 | < 126 | < 251 | < 631 | < 398 | CCCCC[C@H](CN(O)C=O)C(=O)NCNC(=O)c1cccc(-c2cccc(OC)c2)n1 | < 20000
15 | < 126 | < 251 | < 631 | < 398 | CCCCC[C@H](CN(O)C=O)C(=O)NCNC(=O)c1cccc(-c2ccc(C(F)(F)F)cc2)n1 | < 20000
16 | < 126 | < 251 | < 631 | < 398 | CCCCC[C@@H](C(=O)NCNC(=O)c1cccc(-c2ccc(C(C)(C)C(=O)O)cc2)n1)[C@@H](CC)N(O)C=O | < 20000
17 | < 126 | < 251 | < 631 | < 398 | CCCCC[C@H](CN(O)C=O)C(=O)NCNC(=O)c1cccc(-c2cccc(OC)c2F)n1 | < 20000
18 | < 126 | < 251 | < 631 | < 398 | CCCCC[C@@H](C(=O)NCNC(=O)c1cccc(-c2cc(C(=O)OCC)cc(S(N)(=O)=O)c2)n1)[C@@H](CC)N(O)C=O | < 20000
19 | < 126 | < 251 | < 631 | < 398 | CCCCC[C@H](CN(O)C=O)C(=O)NCNC(=O)c1ccnc(-c2ccccc2)n1 | < 20000
20 | < 126 | < 251 | < 631 | < 398 | CCCCC[C@H](CN(O)C=O)C(=O)NCNC(=O)c1cccc(-c2ccc(F)cc2)n1 | < 20000
21 | < 126 | < 251 | < 631 | < 398 | CCCCC[C@@H](C(=O)NCNC(=O)c1cccc(-c2ccc(CC(=O)O)cc2)n1)[C@@H](CC)N(O)C=O | < 20000
22 | < 126 | < 251 | < 631 | < 398 | CCCCC[C@@H](C(=O)NCNC(=O)c1cccc(-c2cccc(S)c2)c1)[C@@H](CC)N(O)C=O | < 20000
23 | < 126 | < 251 | < 631 | < 398 | CCCCC[C@@H](C(=O)NCNC(=O)c1ccc(F)c(-c2ccc(C(=O)O)c(OCC)c2)n1)[C@@H](CC)N(O)C=O | < 20000
24 | < 126 | < 251 | < 631 | < 398 | CCCCC[C@H](CN(O)C=O)C(=O)NCNC(=O)c1cccc(-c2ccc(OC(F)(F)F)cc2)n1 | < 20000
25 | < 126 | < 251 | < 631 | < 398 | CCCCC[C@H](CN(O)C=O)C(=O)NCNC(=O)c1ccc(F)c(-c2ccccc2)n1 | < 20000
26 | < 126 | < 251 | < 631 | < 398 | CCCCC[C@H](CN(O)C=O)C(=O)NCNC(=O)c1cncc(-c2ccccc2)n1 | < 20000
27 | < 126 | < 251 | < 631 | < 398 | CCCCC[C@H](CN(O)C=O)C(=O)NCNC(=O)c1cccc(-c2ccc(F)cc2F)n1 | < 20000
28 | < 126 | < 251 | < 631 | < 398 | CCCCC[C@@H](C(=O)NCNC(=O)c1cccc(-c2ccc(C(=O)N[C@@H](CC(=O)O)C(=O)O)c(OCC)c2)c1)[C@@H](CC)N(O)C=O | < 20000
